In patent US20250144067A1, “PERSONALIZED STARVATION THERAPY FOR CANCER” (Faeth Therapeutics, Inc., priority 2021, published 2025):
Counter-ions that a name gives are not always drawn. Numbered stars: 1 amine (or outer) side, 2 acyl side, 3 side chain; on linkers, the order of the positions; unused ones are H or OH. Bridge positions count the residues as written; N and C are the ends. Square brackets hold non-standard residues; d marks the D form. Peptide text beside a SMILES is read from it. * marks the point of attachment. hTyr(3S-OH,4S-OH,3'-OSO3H) = N[C@H](C(=O)O)[C@H](O)[C@@H](O)c1ccc(O)c(OS(=O)(=O)O)c1; Orn(4R-OH,5R-OH) = O=C([C@H](C[C@@H](O)[C@@H](O)N[*:3])N[*:1])[*:2]; Pro(3S-OH,4S-Me) = C[C@H]1CN[C@H](C(=O)O)[C@H]1O; X1 = CCCCCOc1ccc(-c2cc(-c3ccc(C(=O)*)cc3)no2)cc1; Gln(3R-OH) = NC(=O)C[C@@H](O)[C@H](N)C(=O)O; Hyp = O=C(O)[C@@H]1C[C@@H](O)CN1

Assays:
[1] = test system: NCI-H292 lung cancer cells; assay: FDA drug screening, complete media vs cholesterol-free media without statin (TABLE 1); type: cell-based, human
[2] = test system: NCI-H292 lung cancer cells; assay: FDA drug screening, complete media vs cholesterol-free media with simvastatin (TABLE 2); type: cell-based, human; details: for Cholesterol-free media + simvastatin (0.04 μM) / Complete Media: NCI-H292 cells
[3] = NCI-H292 cells, cholesterol-free media without statin
[4] = complete vs cholesterol-free media, greater than 0 enhanced anti-cancer activity, about 0 neutral, below 0 antagonists
[5] = drug in cholesterol-free media with simvastatin 0.04 μM
[6] = complete media vs cholesterol-free media + simvastatin (0.04 μM), >0 enhanced anti-cancer activity, about 0 neutral, <0 antagonist
[7] = Complete minus Cholesterol-free, >0 enhanced anti-cancer activity, about 0 neutral, <0 antagonist
[8] = FDA drug library screen, cholesterol-free media with simvastatin 0.04 μM
[9] = FDA drug library screen, complete media
[10] = complete media minus cholesterol-free media + simvastatin, >0 enhanced anti-cancer activity, about 0 neutral, <0 antagonist
[11] = FDA library drug in cholesterol-free media with simvastatin 0.04 μM
[12] = FDA library drug in complete media
[13] = NCI-H292 cells, cholesterol-free media without statin, FDA drug library screen
[14] = NCI-H292 cells, complete media, FDA drug library screen
[15] = cholesterol-free media with simvastatin 0.04 μM, cell growth value in FDA drug screen
[16] = complete media, cell growth value in FDA drug screen
[17] = Complete minus Cholesterol-free, greater than 0 enhanced anti-cancer activity, about 0 neutral, below 0 antagonists
[18] = NCI-H292 cells in cholesterol-free media without statin
[19] = NCI-H292 cells in complete media
[20] = Complete minus Cholesterol-free, greater than 0 enhanced anti-cancer activity, about 0 neutral, below 0 antagonist
[21] = NCI-H292 cells, FDA drug library screen, cholesterol-free media without statin
[22] = NCI-H292 cells, FDA drug library screen, complete media
[23] = cholesterol-free media with simvastatin 0.04 μM, FDA drug library screen (TABLE 2)
[24] = complete media, FDA drug library screen (TABLE 2)
[25] = complete media minus cholesterol-free media + simvastatin (0.04 μM), >0 enhanced anti-cancer activity, about 0 neutral, <0 antagonist
[26] = complete vs cholesterol-free media, >0 enhanced anti-cancer activity, about 0 neutral, <0 antagonist
[27] = complete vs cholesterol-free media, […]

SMILES	Cholesterol-free [1, 3]	Complete ([1]; NCI-H292 cells, complete media)	Difference [2, 6]	Difference [1, 7]	Cholesterol-free media + simvastatin (0.04 μM) [2, 8]	Complete Media [2, 9]	Cholesterol-free [1, 13]	Complete [1, 14]	further results
C[C@H]1C[C@@H]2[C@H]([C@@H](O)C[C@@]3(C)[C@H]2CC[C@]3(O)C(=O)COC(=O)CCC(=O)O)[C@@]2(C)C=CC(=O)C=C12 [Methylprednisolone succinate]	0.8243	0.4661	−0.21	–	–	–	–	–	Difference [1, 4]: −0.36; Cholesterol-free media + simvastatin (0.04 μM) [2, 5]: 0.9151; Complete Media ([2]; drug in complete media): 0.7051
C[C@H]1C[C@@H]2[C@H]([C@@H](O)C[C@@]3(C)[C@H]2CC[C@]3(O)C(=O)CO)[C@@]2(C)C=CC(=O)C=C12 [Methylprednisolone]	0.8356	0.6178	–	−0.22	1.016	1.212	–	–	Difference [2, 10]: 0.20
Cc1cc(=O)[nH]c(=S)[nH]1 [Methylthiouracil]	1.055	0.7083	−0.21	–	–	–	–	–	Difference [1, 4]: −0.35; Cholesterol-free media + simvastatin (0.04 μM) [2, 5]: 1.089; Complete Media ([2]; drug in complete media): 0.882
Cc1cc2c(cc1S(N)(=O)=O)S(=O)(=O)CCC2 [Meticrane]	1.363	1.109	−0.56	−0.25	–	–	–	–	Cholesterol-free media + simvastatin (0.04 μM) [2, 11]: 1.393; Complete Media [2, 12]: 0.8316
CC(=O)Oc1c(C)cc(OCC(O)CNC(C)C)c(C)c1C (centres unmarked) [Metipranolol hydrochloride]	–	–	–	0.05	–	–	0.8441	0.893	Cholesterol-free media + simvastatin (0.04 μM) [2, 15]: 0.8039; Complete Media [2, 16]: 0.8617; Difference [2, 10]: 0.06
CN1CCCC(CC2c3ccccc3Sc3ccccc32)C1 (centres unmarked) [Metixene hydrochloride hydrate]	1.293	1.044	−0.17	−0.25	–	–	–	–	Cholesterol-free media + simvastatin (0.04 μM) [2, 5]: 1.206; Complete Media ([2]; drug in complete media): 1.036
Cc1ccccc1N1C(=O)c2cc(S(N)(=O)=O)c(Cl)cc2NC1C (centres unmarked) [Metolazone]	–	–	−0.15	–	1.129	0.9754	–	–	Difference [1, 17]: −0.62; Cholesterol-free [1, 18]: 1.469; Complete [1, 19]: 0.8441
Cc1ncc([N+](=O)[O-])n1CCOC(=O)c1ccccc1 [Metronidazole Benzoate]	1.298	1.001	−0.10	−0.30	1.104	1	–	–	–
Cc1ncc([N+](=O)[O-])n1CCO [Metronidazole]	–	–	−0.27	−0.03	–	–	1.006	0.9754	Cholesterol-free media + simvastatin (0.04 μM) [2, 11]: 1.741; Complete Media [2, 12]: 1.475
CC(C)(C(=O)c1cccnc1)c1cccnc1 [Metyrapone]	1.096	0.7386	–	–	–	–	–	–	Difference [1, 4]: −0.36; Cholesterol-free media + simvastatin (0.04 μM) [2, 15]: 0.9563; Complete Media [2, 16]: 1.066; Difference [2, 10]: 0.11
C[C@](N)(Cc1ccc(O)cc1)C(=O)O [Metyrosine]	–	–	–	–	–	–	–	–	Difference [1, 20]: −0.10; Cholesterol-free [1, 21]: 1.606; Complete [1, 22]: 1.504; Cholesterol-free media + simvastatin (0.04 μM) [2, 23]: 0.9769; Complete Media [2, 24]: 0.9769; Difference [2, 25]: 0.00
Cc1cccc(C)c1OCC(C)N (centres unmarked) [Mexiletine (hydrochloride)]	1.086	0.8848	−0.12	−0.20	1.005	0.8858	–	–	–
CC1(C)S[C@@H]2[C@H](NC(=O)[C@H](NC(=O)N3CCN(S(C)(=O)=O)C3=O)c3ccccc3)C(=O)N2[C@H]1C(=O)[O-].[Na+] [Mezlocillin (sodium)]	–	–	−0.26	–	–	–	0.8225	1.264	Difference [1, 26]: 0.44; Cholesterol-free media + simvastatin (0.04 μM) [2, 5]: 1.179; Complete Media ([2]; drug in complete media): 0.9159
CN1CCN2c3ccccc3Cc3ccccc3C2C1 (centres unmarked) [Mianserin (hydrochloride)]	–	–	−0.10	–	1.121	1.021	1.049	–	Difference [1, 26]: 0.13
CCCCCOc1ccc(-c2cc(-c3ccc(C(=O)N[C@H]4C[C@@H](O)[C@@H](O)NC(=O)[C@@H]5[C@@H](O)[C@@H](C)CN5C(=O)[C@H]([C@H](O)CC(N)=O)NC(=O)[C@H]([C@H](O)[C@@H](O)c5ccc(O)c(OS(=O)(=O)O)c5)NC(=O)[C@@H]5C[C@@H](O)CN5C(=O)[C@H]([C@@H](C)O)NC4=O)cc3)no2)cc1 [Micafungin (sodium)] (X1-[Orn(4R-OH,5R-OH)]T[Hyp][hTyr(3S-OH,4S-OH,3'-OSO3H)][Gln(3R-OH)][Pro(3S-OH,4S-Me)]; lactam 1-C)	–	–	–	–	–	–	1.036	1.188	Difference [1, 27]: 0.15; Cholesterol-free media + simvastatin (0.04 μM) [2, 11]: 2.204; Complete Media [2, 12]: 1.774; Difference ([2]; complete media vs cholesterol-free media + simvastatin (0.04 μM), […]): −0.43
CCC(=O)O[C@@H]1CC(=O)O[C@H](C)C/C=C/C=C/[C@H](O)[C@H](C)C[C@H](CC=O)[C@H](O[C@@H]2O[C@H](C)[C@@H](O[C@H]3C[C@@](C)(O)[C@@H](OC(=O)CC)[C@H](C)O3)[C@H](N(C)C)[C@H]2O)[C@H]1OC [Midecamycin]	–	–	−0.34	–	–	–	1.021	1.536	Difference [1, 26]: 0.52; Cholesterol-free media + simvastatin (0.04 μM) [2, 11]: 1.255; Complete Media [2, 12]: 0.9149
COc1ccc(OC)c(C(O)CNC(=O)CN)c1 (centres unmarked) [Midodrine (hydrochloride)]	–	–	−0.31	–	–	–	0.6607	0.8643	Difference [1, 26]: 0.20; Cholesterol-free media + simvastatin (0.04 μM) [2, 11]: 2.06; Complete Media [2, 12]: 1.752
CO[C@@H]1[C@H](N(C)C(=O)c2ccccc2)C[C@H]2O[C@]1(C)n1c3ccccc3c3c4c(c5c6ccccc6n2c5c31)C(=O)NC4 [Midostaurin]	–	–	−0.14	0.06	0.6712	0.5312	0.3336	0.3958	–
CC#C[C@]1(O)CC[C@H]2[C@@H]3CCC4=CC(=O)CCC4=C3[C@@H](c3ccc(N(C)C)cc3)C[C@@]21C [Mifepristone]	–	–	−0.29	–	–	–	–	–	Difference [1, 17]: −0.57; Cholesterol-free [1, 18]: 1.574; Complete [1, 19]: 0.9996; Cholesterol-free media + simvastatin (0.04 μM) [2, 11]: 1.308; Complete Media [2, 12]: 1.019
OC[C@H]1NC[C@H](O)[C@@H](O)[C@H]1O [Migalastat (hydrochloride)]	–	–	–	–	–	–	–	–	Difference ([1]; Complete minus Cholesterol-free, […]): −0.53; Cholesterol-free [1, 18]: 1.45; Complete [1, 19]: 0.9162; Cholesterol-free media + simvastatin (0.04 μM) ([2]; cholesterol-free media with simvastatin 0.04 μM, […]): 0.7275; Complete Media ([2]; complete media, […]): 0.7465; Difference ([2]; complete media minus cholesterol-free media + simvastatin, […]): 0.02
OCCN1C[C@H](O)[C@@H](O)[C@H](O)[C@H]1CO [Miglitol]	–	–	−0.17	–	–	–	–	–	Difference [1, 20]: −0.11; Cholesterol-free [1, 21]: 0.916; Complete [1, 22]: 0.8049; Cholesterol-free media + simvastatin (0.04 μM) [2, 5]: 1.367; Complete Media ([2]; drug in complete media): 1.199
CCCCN1C[C@H](O)[C@@H](O)[C@H](O)[C@H]1CO [Miglustat (hydrochloride)]	–	–	−0.10	–	0.8113	0.7082	–	–	Difference [1, 17]: −0.51; Cholesterol-free [1, 18]: 1.836; Complete [1, 19]: 1.323
C[N+](C)(C)NCCC(=O)[O-] [Mildronate]	–	–	–	–	–	–	–	–	Difference [1, 20]: −0.08; Cholesterol-free [1, 21]: 0.9949; Complete [1, 22]: 0.9146; Cholesterol-free media + simvastatin (0.04 μM) [2, 23]: 0.9839; Complete Media [2, 24]: 0.9927; Difference [2, 25]: 0.01
CCN(CC)C(=O)C1(c2ccccc2)CC1CN (centres unmarked) [Milnacipran (hydrochloride)]	1.545	1.09	–	–	–	–	–	–	Difference [1, 27]: −0.45; Cholesterol-free media + simvastatin (0.04 μM) [2, 23]: 1.626; Complete Media [2, 24]: 1.564; Difference ([2]; complete media minus cholesterol-free media + simvastatin (0.04 μM), […]): −0.06
Cc1[nH]c(=O)c(C#N)cc1-c1ccncc1 [Milrinone]	–	–	–	−0.04	1.16	1.825	0.9793	0.9407	Difference [2, 10]: 0.66
CCCCCCCCCCCCCCCCOP(=O)([O-])OCC[N+](C)(C)C [Miltefosine]	–	–	−0.25	−0.07	–	–	1.003	0.9345	Cholesterol-free media + simvastatin (0.04 μM) [2, 5]: 1.237; Complete Media ([2]; drug in complete media): 0.9911
